Here are results for 2 molecules from the NIST ThermoML archive (doi:10.1021/je800848u).

Molecules are shown by their SMILES. ± gives the expanded uncertainty stated by the source.

The conditions of data set [1]: Crystal; visual observation.
A short description of data set [2]: Molar enthalpy of transition or fusion. The following applies: Crystal; DSC.

For `O=C(O)c1ccccc1Cl` [2-chlorobenzoic acid], the Normal melting temperature in data set [1] came to 141.00 ± 0.4 °C. Also, in data set [2], the “Molar enthalpy of transition or fusion” value was found to be 27.5 ± 0.79 kJ/mol.
For `NC(=O)c1ccccc1` [benzamide], the Normal melting temperature in data set [1] worked out at 127.00 ± 0.4 °C. Besides, the “Molar enthalpy of transition or fusion” value in data set [2] turned out to be 23.1 ± 0.68 kJ/mol.
